Source: patent US8617872B2, “Compositions for culturing spirochetes” (priority 2000, dated 2013)

Experiments:
Assay type in all cases: cell-based
Leptospira [1] = assay: Susceptibility testing of Leptospira isolated from a patient with symptoms of rheumatoid arthritis; conditions: for Antibiotic Susceptibility Results, SERUM: Leptospira culture from serum of rheumatoid arthritis patient; for Antibiotic Susceptibility Results, URINE: Leptospira culture from urine of rheumatoid arthritis patient
Text: (§1) This example describes the preparation of a pellet used for antimicrobial susceptibility testing of a culture sample. The procedure begins with a culture (e.g., prepared in the manner described in Example 2), where serum from a patient is inoculated in GSI-1 media and allowed to grow. In order to form pellet, an aliquot of this culture sample is placed in a microcentrifuge tube along with 10% SDS solution, and centrifuged at 14,000 g to disrupt the spirochetes and maximize the number of available eptiopic sites. The disrupted spirochetes were then cultured in an alternative growth medium made up of one part GSI-1 medium, one part 6.5% lactalbumin hydrolysate, one part 2% brain heart infusion, one part 10% pluronic fluid, and one part of the isolated (disrupted) spirochetes. This inoculated alternative growth medium was then allowed to incubate in the closed micro centrifuge tube until a distinctive pellet was observed (typically 7-14 days).
(§2) Following the observation of pellet formation, the tube was vortexed and incubated at 35° C. until a MacFarlane standard of between 8 to 12% turbidity was achieved. MICROSCAN antibiotic susceptibility microtiter plates were then inoculated with (e.g., 110 μl of) inoculum and allowed to incubate at 35° C. for 16-20 hours. The microtiter plates were then scanned for growth and respective sensitivity reaction (both the control well and the growth well).
This Example describes the diagnosis and treatment of a human patient with symptoms of rheumatoid arthritis. In particular, serum and urine samples from this patient were initially cultured on GSI-1 (e.g., as described in Example 2), and screened for the presence of spirochetes (e.g., as described in Example 3). […] These cultures were then used to produce pellets for antimicrobial susceptibility testing (e.g., as described in Example 6). The antimicrobial susceptibility tests were then carried out on each sample (e.g., as described in Example 7) with the antimicrobials listed below in Table 5.

E. coli = assay: Antibiotic susceptibility test (MICROSCAN or disc diffusion), control organism E. coli; conditions: total isolates 1
Pseudomonas = assay: Antibiotic susceptibility test (MICROSCAN or disc diffusion), control organism Pseudomonas; conditions: total isolates 1
Leptospira [2] = assay: Susceptibility testing of Leptospira isolated from a patient with symptoms of multiple sclerosis; conditions: for Antibiotic Susceptibility Results, SERUM: Leptospira culture from serum of multiple sclerosis patient; for Antibiotic Susceptibility Results, URINE: Leptospira culture from urine of multiple sclerosis patient
Description: This example describes the preparation of a pellet used for antimicrobial susceptibility testing of a culture sample. […] In order to form pellet, an aliquot of this culture sample is placed in a microcentrifuge tube along with 10% SDS solution, and centrifuged at 14,000 g to disrupt the spirochetes and maximize the number of available eptiopic sites. […] This inoculated alternative growth medium was then allowed to incubate in the closed micro centrifuge tube until a distinctive pellet was observed (typically 7-14 days).
MICROSCAN antibiotic susceptibility microtiter plates were then inoculated with (e.g., 110 μl of) inoculum and allowed to incubate at 35° C. for 16-20 hours. The microtiter plates were then scanned for growth and respective sensitivity reaction (both the control well and the growth well).

Tatumella = assay: Antibiotic susceptibility test (MICROSCAN or disc diffusion), control organism Tatumella; conditions: total isolates 2
Text: as §1
as §2, with “well). Table 2 below lists the various antimicrobials tested with this sample and whether growth of the organism was inhibited (susceptible) or whether the growth of the organism was not inhibited (resistant).” for “well).”
(§3) This Example describes the results for susceptibility tests that were performed on a large number of patient samples positive for either Borrelia or Leptospira. […] The results presented in Table 3 reveal the varied response of different types of spirochetes to different antibiotics.

Borrelia = assay: Antibiotic susceptibility test (MICROSCAN or disc diffusion) of patient samples positive for Borrelia; conditions: total isolates 519
Text: as §1
as §2, with “well). Table 2 below lists the various antimicrobials tested with this sample and whether growth of the organism was inhibited (susceptible) or whether the growth of the organism was not inhibited (resistant).” for “well).”
as §3

Leptospira [3] = assay: Antibiotic susceptibility test (MICROSCAN or disc diffusion) of patient samples positive for Leptospira; conditions: total isolates 276
Text: as §1
as §2, with “well). Table 2 below lists the various antimicrobials tested with this sample and whether growth of the organism was inhibited (susceptible) or whether the growth of the organism was not inhibited (resistant).” for “well).”
as §3

Y. entero gp. = assay: Antibiotic susceptibility test (MICROSCAN or disc diffusion), control organism Y. entero gp.; conditions: total isolates 1
A. lwoffii = assay: Antibiotic susceptibility test (MICROSCAN or disc diffusion), control organism A. lwoffii; conditions: total isolates 1
Treponema isolate = assay: Antimicrobial susceptibility test (MICROSCAN plates) of a patient's Treponema isolate; conditions: Treponema infected patient's isolate; MICROSCAN plates, 35° C., 16-20 hours
Description: For susceptibility testing, the organisms harvested could be assayed using any suitable susceptibility assay (See, Example 7). In some embodiments of the present invention, MICROSCAN antibiotic susceptibility plates were inoculated and incubated. Following incubations, plates were scanned for growth and respective sensitivity reaction. […] For the results to be considered reliable, the no growth of organisms was accepted in the negative control well, while the positive control well had to have sufficient growth to be read. In some embodiments of the present invention, to confirm the presence or absence of growing spirochetes in the growth well, aliquots from the growth well were reinoculated with fresh growth media and after an incubation time (e.g., 7-10 days) the presence of the organisms was confirmed (e.g., by phase contrast microscopy or direct fluorescent antibody staining).
as §1
This example describes an antimicrobial susceptibility test performed for a human patient. The patient had previously been testing using GSI-1 medium (e.g., as described in Example 2) for the presence of any spirochetes. […] This culture sample was then transferred to a microcentrifuge tube, and a pellet for antimicrobial susceptibility testing was prepared as described in Example 6.
as §2, with “well). Table 2 below lists the various antimicrobials tested with this sample and whether growth of the organism was inhibited (susceptible) or whether the growth of the organism was not inhibited (resistant).” for “well).”

| Molecule | Antibiotic Susceptibility Results, SERUM (Leptospira [1]) | Antibiotic Susceptibility Results, URINE (Leptospira [1]) | Antibiotic Susceptibility Test Results, E. coli (E. coli) [%] | Antibiotic Susceptibility Test Results, Pseudomonas (Pseudomonas) [%] | Antibiotic Susceptibility Results, SERUM (Leptospira [2]) | Antibiotic Susceptibility Results, URINE (Leptospira [2]) | Antibiotic Susceptibility Test Results, Tatumella (Tatumella) [%] | Antibiotic Susceptibility Test Results, Borrelia (Borrelia) [%] | Antibiotic Susceptibility Test Results, Leptospira (Leptospira [3]) [%] | Antibiotic Susceptibility Test Results, Y. entero gp. (Y. entero gp.) [%] | Antibiotic Susceptibility Test Results, A. lwoffii (A. lwoffii) [%] | RESULT (antibiotic susceptibility) (Treponema isolate) |
| --- | --- | --- | --- | --- | --- | --- | --- | --- | --- | --- | --- | --- |
| Ticarcillin/Clavulanate | Resistant | Resistant | 100 | 100 | Resistant | Resistant | 100 | 79 | 75 | 100 | 100 | Susceptible |
| C[C@@H](O)[C@H]1C(=O)N2C(C(=O)O)=C(S[C@@H]3CN[C@H](C(=O)N(C)C)C3)[C@H](C)[C@H]12 [Meropenem] | Resistant | Resistant | 100 | 100 | Resistant | Resistant | 100 | 82 | 75 | 100 | 100 | Resistant |
| CO/N=C(\C(=O)N[C@@H]1C(=O)N2C(C(=O)O)=C(COC(C)=O)CS[C@H]12)c1csc(N)n1 [Cefotaxime] | Resistant | Resistant | 100 | 100 | Resistant | Resistant | 0 | 60 | 64 | 100 | 100 | – |
| C[C@H]1COc2c(N3CCN(C)CC3)c(F)cc3c(=O)c(C(=O)O)cn1c23 [Levofloxacin] | Susceptible | Susceptible | 100 | 100 | Susceptible | Susceptible | 100 | 86 | 83 | 100 | 100 | – |
| NCC[C@H](O)C(=O)N[C@@H]1C[C@H](N)[C@@H](O[C@H]2O[C@H](CN)[C@@H](O)[C@H](O)[C@H]2O)[C@H](O)[C@H]1O[C@H]1O[C@H](CO)[C@@H](O)[C@H](N)[C@H]1O [Amikacin] | Resistant | Resistant | 100 | 100 | Resistant | Resistant | 100 | 84 | 85 | 100 | 100 | – |
| Gentamicin | Resistant | Resistant | 100 | 100 | Resistant | Resistant | 100 | 89 | 86 | 100 | 100 | Resistant |
| CCN1CCN(C(=O)N[C@@H](C(=O)N[C@@H]2C(=O)N3[C@@H]2SC(C)(C)[C@@H]3C(=O)O)c2ccccc2)C(=O)C1=O [Piperacillin] | Resistant | Resistant | 100 | 100 | Resistant | Resistant | 100 | 60 | 55 | 100 | 100 | Susceptible |
| CC(C)(O/N=C(\C(=O)N[C@@H]1C(=O)N2C(C(=O)[O-])=C(C[n+]3ccccc3)CS[C@H]12)c1csc(N)n1)C(=O)O [Ceftazidime] | Resistant | Resistant | 100 | 100 | Resistant | Resistant | 0 | 36 | 41 | 100 | 100 | – |
| O=C(O)c1cn(C2CC2)c2cc(N3CCNCC3)c(F)cc2c1=O [Ciprofloxacin] | Susceptible | Susceptible | 100 | 100 | Susceptible | Susceptible | 100 | 84 | 78 | 100 | 100 | Resistant |
| NC[C@H]1O[C@H](O[C@H]2[C@H](O)[C@@H](O[C@H]3O[C@H](CO)[C@@H](O)[C@H](N)[C@H]3O)[C@H](N)C[C@@H]2N)[C@H](N)C[C@@H]1O [Tobramycin] | Resistant | Resistant | 100 | 100 | Resistant | Resistant | 100 | 81 | 84 | 100 | 100 | Intermediate |
